TGI data for 26 compounds are collected here from PubChem BioAssay (NCI).

Some test systems named below: HCC-2998 colon; NCI/ADR-RES ovarian; PC-3 prostate; SF-539 CNS; COLO 205 colon; HS 578T breast; A549 NSCLC; SK-MEL-5 melanoma; HCT-15 colon; BT-549 breast.
Common to all, as to assay: NCI-60 cell line screen, 48 h

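Results reflect a 48-hour exposure of cells in 96-well plates to compound at five concentrations. At the TGI there is no net growth.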

Consider `COC(=O)CCCc1ccc2c(c1)CC1(C2)Cc2cc3c(cc2C1)CCCC3`, for which the TGI was 74.5 µM in the assay with HCC-2998 colon; above 100 µM in the assay on NCI/ADR-RES ovarian; above 100 µM in the assay on PC-3 prostate; above 100 µM in the assay with SF-539 CNS; 53 µM with COLO 205 colon; 90.9 µM in the assay on HS 578T breast. The TGI in the assay with A549 NSCLC was 67.7 µM; with SK-MEL-5 melanoma, 41.2 µM; in the assay on HCT-15 colon, 89.3 µM.

For `O=C(Nc1ccccc1)O/N=C(/CBr)c1ccccc1`, the TGI with HCC-2998 colon is 36.6 µM; with NCI/ADR-RES ovarian, above 100 µM; in the assay with PC-3 prostate it was 30.3 µM; with SF-539 CNS it was 29.5 µM; in the assay with COLO 205 colon it was 32.9 µM; in the assay on HS 578T breast, 90.6 µM. The values for the TGI in the assay with A549 NSCLC, in the assay on SK-MEL-5 melanoma and with HCT-15 colon were above 100 µM, 28.1 µM and 22.2 µM, respectively.

In the case of `Cc1ccc(S(=O)(=O)N/C(=C\C=C\c2ccccc2)C(=O)C(C)(C)C)cc1`, the TGI in the assay with HCC-2998 colon, with NCI/ADR-RES ovarian, in the assay on PC-3 prostate, with SF-539 CNS, with COLO 205 colon and with HS 578T breast was above 100 µM throughout. Moreover, the TGI in the assay with A549 NSCLC, in the assay on SK-MEL-5 melanoma and in the assay with HCT-15 colon was above 100 µM in each case.

Consider `CC(=O)C1CC(C)=CCC12C(=O)Nc1ccccc12` (stereo not drawn), for which the TGI with HCC-2998 colon, in the assay with SF-539 CNS, in the assay with COLO 205 colon, in the assay with A549 NSCLC, with SK-MEL-5 melanoma and with HCT-15 colon was above 100 µM throughout.

As to `O=C(c1ccc(Cl)cc1)c1ccc(OCC(=O)N2CCN(c3ccccc3)CC2)cc1`, the TGI in the assay with HCC-2998 colon, with SF-539 CNS, in the assay with COLO 205 colon, in the assay on A549 NSCLC, in the assay on SK-MEL-5 melanoma and in the assay on HCT-15 colon was above 100 µM each time.

In the case of `COc1ccc2c3c1OC1CC(O)C=CC31CCN(C)C2` (stereo not drawn), the TGI was above 150 µM in the assay on HCC-2998 colon; above 150 µM with NCI/ADR-RES ovarian; above 33.8 µM in the assay with SF-539 CNS; above 150 µM in the assay with COLO 205 colon; above 150 µM with A549 NSCLC; above 150 µM in the assay with SK-MEL-5 melanoma. The TGI in the assay with HCT-15 colon is above 150 µM.

As for `C=CCC(C)C12CCNC(Cc3ccc(O)cc31)C2C` (stereo not drawn), the TGI in the assay on HCC-2998 colon, with NCI/ADR-RES ovarian, with SF-539 CNS, in the assay with COLO 205 colon, in the assay on HS 578T breast and in the assay on A549 NSCLC was above 100 µM each time. Also, the TGI in the assay with SK-MEL-5 melanoma and in the assay on HCT-15 colon was above 100 µM in each case.

Turning to `COc1ccc2[nH]c3c(c2c1)CCN(C)CC3`, the TGI in the assay on HCC-2998 colon, in the assay with SF-539 CNS, in the assay with COLO 205 colon, in the assay with A549 NSCLC, in the assay on SK-MEL-5 melanoma and with HCT-15 colon was above 100 µM each time.

On to `CCCCOC(=O)CNC(=O)OCCCCC#CC#CCCCCOC(=O)NCC(=O)OCCCC`, for which the TGI with HCC-2998 colon, with SF-539 CNS, with COLO 205 colon, with A549 NSCLC and with SK-MEL-5 melanoma was above 100 µM in each case.

Take `Cc1ccc2c(=O)cc(-c3csc4ccccc34)[nH]c2n1`: the TGI in the assay on NCI/ADR-RES ovarian is 0.569 µM; in the assay with BT-549 breast, 22.3 µM; in the assay on PC-3 prostate it was 0.0198 µM; in the assay with SF-539 CNS, below 0.0133 µM; with COLO 205 colon, 0.756 µM; in the assay with A549 NSCLC, 19.5 µM. The values for the TGI in the assay with SK-MEL-5 melanoma and in the assay with HCT-15 colon were 1.05 µM and 13.4 µM, respectively.

For the compound `CC(C)(C)OC(=O)n1cc(C2CNC(=O)C23CCC(=O)N3Cc2ccccc2)c2ccccc21` (stereo not drawn), the TGI with NCI/ADR-RES ovarian was above 100 µM; with PC-3 prostate, 79.3 µM; with SF-539 CNS, 38.4 µM; in the assay with COLO 205 colon, 33.4 µM; in the assay on HS 578T breast, 86.5 µM; in the assay on A549 NSCLC, 40.4 µM. The same compound came in with a TGI with SK-MEL-5 melanoma of 31.9 µM.

For the compound `O=C(Nc1ccccc1F)c1c(O)nc2sccn2c1=O`, the TGI in the assay on HCC-2998 colon, with NCI/ADR-RES ovarian, in the assay on PC-3 prostate, with SF-539 CNS, with COLO 205 colon and with HS 578T breast was above 10 µM each time. The TGI with A549 NSCLC, in the assay with SK-MEL-5 melanoma and in the assay on HCT-15 colon was above 10 µM each time.

With `COC1=CC(=O)c2ccccc2C1(CCC=C(C)C)C1=NC(C)(C)CO1` (stereo not drawn), the TGI with SF-539 CNS, in the assay on COLO 205 colon, in the assay on A549 NSCLC, in the assay with SK-MEL-5 melanoma and with HCT-15 colon was above 100 µM each time.

For `Cc1ccc(F)cc1NC(=O)O/N=C(\Cl)C(C)C`, the TGI was 34.4 µM with HCC-2998 colon; 27.2 µM with NCI/ADR-RES ovarian; 33.4 µM in the assay on PC-3 prostate; 18.1 µM with SF-539 CNS; 3.74 µM in the assay with COLO 205 colon; above 65.6 µM with HS 578T breast. Also, the figures for the TGI with A549 NSCLC, in the assay on SK-MEL-5 melanoma and in the assay with HCT-15 colon were 38.2 µM, 24.1 µM and 3.66 µM, respectively.

With `CCOC/N=C(/N)NC#N`, the TGI with HCC-2998 colon was above 100 µM; with SF-539 CNS, above 100 µM; with COLO 205 colon, above 100 µM; with A549 NSCLC, above 100 µM; with SK-MEL-5 melanoma, above 100 µM; in the assay with HCT-15 colon, 45 µM.

In the case of `CC(=O)c1ccc(N=Nc2ccc3nonc3c2N)cc1`, the TGI in the assay with HCC-2998 colon, in the assay with NCI/ADR-RES ovarian, in the assay on PC-3 prostate, with SF-539 CNS, in the assay on COLO 205 colon and with HS 578T breast was above 100 µM each time. Further, the TGI in the assay on A549 NSCLC, in the assay on SK-MEL-5 melanoma and with HCT-15 colon was above 100 µM in each case.

Turning to `CCC1C(=O)C[C@H]2[C@@H]3C(O)CC4=CC(=O)CC[C@]4(C)[C@H]3CC[C@]12C` (stereo partly drawn), the TGI in the assay with HCC-2998 colon, with NCI/ADR-RES ovarian, with PC-3 prostate, in the assay with SF-539 CNS, in the assay on COLO 205 colon and with HS 578T breast was above 50 µM each time. The TGI in the assay with A549 NSCLC, in the assay with SK-MEL-5 melanoma and in the assay on HCT-15 colon was above 50 µM throughout.

`CN(C)c1ccc(/C=N/Nc2nc3ccccc3c(=O)n2-c2ccccc2)cc1`: the TGI is above 100 µM with HCC-2998 colon; above 100 µM in the assay on NCI/ADR-RES ovarian; above 100 µM with PC-3 prostate; 72 µM in the assay on SF-539 CNS; above 100 µM with COLO 205 colon; above 100 µM in the assay with A549 NSCLC. In addition, the TGI with SK-MEL-5 melanoma and in the assay on HCT-15 colon was above 100 µM throughout.

Regarding `COc1cccc2cc(C)c(C(=O)c3ccccc3)nc12`, the TGI in the assay on HCC-2998 colon, in the assay with SF-539 CNS, with COLO 205 colon, with A549 NSCLC, in the assay with SK-MEL-5 melanoma and with HCT-15 colon was above 100 µM each time.

In the case of `N/N=C(\C(=O)Nc1c(Cl)cc([N+](=O)[O-])cc1Cl)C(c1cnc2ccc([N+](=O)[O-])cc2n1)[N+](=O)[O-]` (stereo not drawn), the TGI in the assay on HCC-2998 colon, in the assay on SF-539 CNS, in the assay with COLO 205 colon, with A549 NSCLC, in the assay on SK-MEL-5 melanoma and with HCT-15 colon was above 100 µM in each case.

As to `CCC(C)[C@H](NC(=O)N[C@H](C)c1ccccc1)C(=O)OC` (stereo partly drawn), the TGI with HCC-2998 colon, in the assay with BT-549 breast, with PC-3 prostate, with SF-539 CNS, with COLO 205 colon and in the assay with A549 NSCLC was above 100 µM each time. Further, the TGI in the assay with SK-MEL-5 melanoma and with HCT-15 colon was above 100 µM throughout.

For the compound `CC1(C)OC2OC(COC(=O)C=[N+]=[N-])C3OC(C)(C)OC3C2O1` (stereo not drawn), the TGI in the assay on HCC-2998 colon, in the assay with BT-549 breast, with PC-3 prostate, in the assay on COLO 205 colon, in the assay with SK-MEL-5 melanoma and in the assay on HCT-15 colon was above 100 µM in each case.

As for `CC(=O)C(C(C)=O)=C1CCCC(O)O1` (stereo not drawn), the TGI in the assay on HCC-2998 colon, with NCI/ADR-RES ovarian, in the assay with SF-539 CNS, in the assay with COLO 205 colon, in the assay on HS 578T breast and in the assay with A549 NSCLC was above 100 µM in each case. Further, the TGI with SK-MEL-5 melanoma and in the assay on HCT-15 colon was above 100 µM in each case.

Regarding `CCCCCc1cc(OC(=O)c2c(O)cc(OC)cc2CCCCC)cc(O)c1C(=O)O`, the TGI was 29 µM with HCC-2998 colon; 30.5 µM in the assay on SF-539 CNS; 34.5 µM in the assay on COLO 205 colon; 35.6 µM with A549 NSCLC; 28.5 µM in the assay with SK-MEL-5 melanoma; 30.7 µM in the assay with HCT-15 colon.

With `COc1cc(OC)c2c(O)cc(CC(C)O)cc2c1` (stereo not drawn), the TGI in the assay with HCC-2998 colon, with SF-539 CNS, in the assay with COLO 205 colon, in the assay on A549 NSCLC, with SK-MEL-5 melanoma and in the assay on HCT-15 colon was above 100 µM throughout.

As for `O=C1C(Br)=CC2([N+](=O)[O-])CCNc3c(O)c4c5c(c3C2=C1Br)=NCCC=5C=N4` (stereo not drawn), the TGI was 13.2 µM in the assay on HCC-2998 colon; 6.52 µM in the assay on NCI/ADR-RES ovarian; 4.55 µM with SF-539 CNS; 0.133 µM in the assay with COLO 205 colon; 16.3 µM in the assay on A549 NSCLC; 1.33 µM in the assay with SK-MEL-5 melanoma. The same compound returned a TGI with HCT-15 colon of 2.16 µM.
